Test results: US10336711B2, “Prolyl hydroxylase inhibitors” (GlaxoSmithKline, LLC, priority 2006, dated 2019)

What follows are compounds tested on Hep3B cells (assay: Epo protein produced by Hep3B cell line using ELISA method). Conditions: Homo sapiens, 48 Hours incubation, 100 micromolar the maximum concentration tested.
Format: cell-based
Description: Measure Epo Protein Produced by Hep3B Cell Line Using ELISA Method.
Hep3B cells obtained from the American Type Culture Collection (ATCC) are seeded at 2×10^4 cells/well in Dulbecco's Modified Eagle Medium (DMEM)+10% FBS in 96-well plates. Cells are incubated at 37deg C./5% CO2/90% humidity (standard cell culture incubation conditions). After overnight adherence, medium is removed and replaced with DMEM without serum containing test compound or DMSO negative control. Following 48 Hours incubation, cell culture medium is collected and assayed by ELISA to quantitate Epo protein.

| Structure (SMILES) | EC50 |
| --- | --- |
| O=C(O)CNC(=O)c1c(O)n(-c2ccccc2[N+](=O)[O-])c(=O)n(Cc2ccccc2)c1=O [Example 9, N-{[6-Hydroxy-1-(2-nitrophenyl)-2,4-dioxo-3-(phenylmethyl)-1,2,3,4-tetrahydro-5-pyrimidinyl]carbonyl}glycine] | > 100 µM |
| O=C(O)CNC(=O)c1c(O)n(-c2ccccn2)c(=O)n(Cc2ccccc2)c1=O [Example 8, N-{[6-Hydroxy-2,4-dioxo-3-(phenylmethyl)-1-(2-pyridinyl)-1,2,3,4-tetrahydro-5-pyrimidinyl]carbonyl}glycine] | > 100 µM |
| O=C(O)CCCCCn1c(O)c(C(=O)NCC(=O)O)c(=O)n(C2CCCCC2)c1=O [Example 93, 6-[5-{[(Carboxymethyl)amino]carbonyl}-3-cyclohexyl-6-hydroxy-2,4-dioxo-3,4-dihydro-1(2 H)-pyrimidinyl]hexanoic acid] | > 100 µM |
| O=C(O)CNC(=O)c1c(O)n(C2CCCCC2)c(=O)n(CCCN2CCOCC2)c1=O [Example 35, N-({1-Cyclohexyl-6-hydroxy-3-[3-(4-morpholinyl)propyl]-2,4-dioxo-1,2,3,4-tetrahydro-5-pyrimidinyl}carbonyl)glycine] | > 100 µM |
| CCOC(=O)CNC(=S)c1c(O)n(C2CCCCC2)c(=O)n(C2CCCCC2)c1=O [Example 91, Ethyl N-[(1,3-dicyclohexyl-6-hydroxy-2,4-dioxo-1,2,3,4-tetrahydro-5-pyrimidinyl)carbonothioyl]glycinate] | > 100 µM |
| CC1(C)CCC(C)(C)c2cc(Cn3c(=O)c(C(=O)NCC(=O)O)c(O)n(C4CCCCC4)c3=O)ccc21 [Example 39, N-({1-Cyclohexyl-6-hydroxy-2,4-dioxo-3-[(5,5,8,8-tetramethyl-5,6,7,8-tetrahydro-2-naphthalenyl)methyl]-1,2,3,4-tetrahydro-5-pyrimidinyl}carbonyl)glycine] | > 100 µM |
| O=C(O)CNC(=O)c1c(O)n(-c2cccc3ccccc23)c(=O)n(C2CCCCC2)c1=O [Example 88, N-{[3-Cyclohexyl-6-hydroxy-1-(1-naphthalenyl)-2,4-dioxo-1,2,3,4-tetrahydro-5-pyrimidinyl]carbonyl}glycine] | > 100 µM |
| CC(C)(C)c1ccc(Cn2c(=O)c(C(=O)NCC(=O)O)c(O)n(-c3ccccc3-c3ccccc3)c2=O)cc1 [Example 31, N-[(1-(2-Biphenylyl)-3-{[4-(1,1-dimethylethyl)phenyl]methyl}-6-hydroxy-2,4-dioxo-1,2,3,4-tetrahydro-5-pyrimidinyl)carbonyl]glycine] | > 100 µM |
| O=C(O)CCCCCn1c(O)c(C(=S)NCC(=O)O)c(=O)n(C2CCCCC2)c1=O [Example 94, 6-[5-{[(Carboxymethyl)amino]carbonothioyl}-3-cyclohexyl-6-hydroxy-2,4-dioxo-3,4-dihydro-1(2 H)-pyrimidinyl]hexanoic acid] | > 100 µM |
